{
  "source": "patent US10851073B2",
  "about": "“Protein tyrosine phosphatase inhibitors and methods of use thereof” (Calico Life Sciences LLC, priority 2019, dated 2020)",
  "key": {"pSTAT5 in CD3+ T cells": {"tested_on": "pSTAT5 in CD3+ T cells", "test": "pSTAT5 flow cytometry assay in mouse whole blood", "type": "in vivo", "procedure": "pSTAT5 Flow Cytometry Assay in Mouse Whole Blood. Whole blood was drawn into EDTA powder coated tubes by cardiac puncture from mice on day 8 of dosing with Compound 118 (2 hours after the 16th dose). 90 μL of whole blood were stimulated with 10 μL of murine IL-2 to achieve a final concentration of 100 ng IL-2/mL (R&D Systems, Minneapolis, Minn., cat #402-ML) for 20 minutes at 37° C., 5% CO2. After stimulation, 1.8 mL of prewarmed BD Phosflow Lyse/Fix Buffer (BD Biosciences, San Jose, Calif.) was added for 20 minutes at 37° C. Cells were washed twice in FACS buffer (Dulbecco's PBS with 0.2% BSA) and incubated for 30 minutes on ice in cold Perm Buffer III (BD Biosciences, San Jose, Calif.). Cells were washed with FACS buffer and resuspended in 50 μL of FACS buffer with antibodies and stained for 3 hours at room temperature with gentle shaking. […] After staining, cells were washed twice with FACS buffer, and the samples were acquired on a BD LSRFortessa™ X20 flow cytometers (BD Biosciences, San Jose, Calif.) and analyzed with FLowJo V10 software (FlowJo, Ashland, Oreg.). The mean fluorescence intensity (MFI) of pSTAT5 as a measure of the amount of phosphorylated STAT5 in the CD3+ T cell population from vehicle or Compound 118 treated animals was reported."}, "[1]": {"tested_on": "Granzyme B+ cells within the CD8+ T cell population", "test": "Granzyme B staining of CD8 T cells flow cytometry assay in mouse spleen", "type": "in vivo", "procedure": "Granzyme B Staining of CD8 T Cells Flow Cytometry Assay in Mouse Spleen. Mice were sacrificed on day 8 of dosing with Compound 118 (2 hours after the 16th dose) and spleens were excised. Spleens were dissociated with a gentleMACS dissociator (Miltenyi Biotec, Bergisch Gladbach, Germany), red blood cells lysed, and single cell suspensions were prepared. Splenocytes were stained with Zombie UV™ Fixable Viability kit (Biolegend, San Diego, Calif.) diluted in Dulbecco's PBS for 10 minutes at room temperature to exclude dead cells followed by staining for surface markers for 45 minutes on ice using the following flow cytometry antibodies diluted in autoMACS Running Buffer (Miltenyi Biotec, Bergisch Gladbach, Germany): Brilliant Violet 510-labeled anti-CD45, Brilliant Ultraviolet 395-labeled anti-CD3, Brilliant Violet 786-labeled anti-CD4, APC/Cy7-labeled anti-CD8. […] After staining, cells were washed twice with autoMACS Running Buffer, and the samples were acquired on a BD LSRFortessa™ X20 flow cytometers (BD Biosciences, San Jose, Calif.) and analyzed with FLowJo V10 software (FlowJo, Ashland, Oreg.). […]"}, "IP10": {"tested_on": "IP10", "test": "Cytokine measurement in mouse plasma", "type": "in vivo", "procedure": "Cytokine Measurement in Mouse Plasma. Whole blood was drawn into EDTA powder coated tubes by cardiac puncture from mice on day 8 of dosing with Compound 118 (2 hours after the 16th dose) and plasma was prepared by centrifugation. Cytokines in plasma were measured using the Th1/Th2 Cytokine & Chemokine 20-Plex Mouse ProcartaPlex™ Panel 1 (Invitrogen, Carlsbad, Calif.). IP10 levels (pg/mL) in vehicle or Compound 118 treated animals were reported."}, "[2]": {"tested_on": "MC-38 murine colon adenocarcinoma", "test": "In vivo efficacy in MC38 mouse tumor model", "procedure": "Example 232. In Vivo Efficacy of PTPN2 Inhibitors in MC38 Mouse Tumor Model and Impact on Pharmacodynamic Markers\nAll experiments were conducted in compliance with AbbVie's Institutional Animal Care and Use Committee and the National Institutes of Health Guide for Care and Use of Laboratory Animals guidelines in a facility accredited by the Association for the Assessment and Accreditation of Laboratory Animal Care. C57Bl/6 female mice were obtained from Charles River (Wilmington, Mass.). The mice were group-housed 10 per cage. Food and water were available ad libitum. Animals were acclimated to the animal facilities for a period of at least one week prior to commencement of experiments. Animals were tested in the light phase of a 12-hour light: 12-hour dark schedule (lights on 0600 hours).\nTumor Cell Inoculation and Treatments.\nCells were grown to passage 3 in vitro. A total of 1×10^5 viable MC-38 cells were inoculated subcutaneously into the right flank of female C57Bl/6 mice (7-12 weeks old) on Day 0. The injection volume was 0.1 mL and was composed of a 1:1 mixture of S-MEM and Matrigel® (Corning, N.Y., USA). […] The mean tumor volume (TV) at size match was approximately 196±64 mm^3. Following size match, treatments were initiated on the same day. Dosing of mice was conducted orally, twice a day (BID) at 7 a.m. and 5 p.m. for 21 days. Mice were dosed (10 mg/kg/dose) with either Compound 118 or vehicle controls (n=15 mice/group). Compound 118 was formulated in 10% ethanol, 30% PEG-400 and 60% Phosal-50PG and was dosed at 10 mL/kg. Tumor volume was calculated three times weekly. Measurements of the length (L) and width (W) of the tumor were taken via electronic caliper and the volume was calculated according to the following equation: V=L×W^2/2 using Study Director Version 3.1.399.22 (Studylog Systems, Inc, CA, USA). Mice were euthanized when tumor volume was […] or skin ulcerations occurred. Tumor growth inhibition (TGI) was calculated as TGI=1−(Mean TVTimepoint(Treatment)/Mean TVTimepoint (Vehicle)) for each timepoint that tumor volumes were measured. Reported TGIMax is the largest TGI value for any timepoint that tumors volumes were collected for that treatment group."}, "[3]": {"details": "10 mg/kg/dose oral BID, day 8 of dosing (2 hours post 16th dose), value ± SEM"}, "[4]": {"details": "10 mg/kg/dose oral BID for 21 days"}},
  "data": [
    {"smiles": "CC(C)CCN[C@@H]1CCc2cc(O)c(N3CC(=O)NS3(=O)=O)c(F)c2C1", "note": "(single isomer, unassigned) [Compound 118]", "values": [
      {"measurement": "pSTAT5 level [MFI] in CD3+ T cells from IL2 stimulated whole blood", "setting": "pSTAT5 in CD3+ T cells; [3]", "result": "1261±97", "unit": "MFI"},
      {"measurement": "pSTAT5 levels in whole blood T cells, fold higher than vehicle", "setting": "pSTAT5 in CD3+ T cells; day 8 of dosing, ex vivo IL2 stimulation", "result": 1.6, "unit": "fold"},
      {"measurement": "% GzB+ cells within splenic CD8+ T cells", "setting": "[1]; [3]", "result": "4.3±0.9", "unit": "%"},
      {"measurement": "frequency of granzyme B producing cells within CD8+ T population in spleen, fold higher than vehicle", "setting": "[1]; day 8 of dosing", "result": 3.9, "unit": "fold"},
      {"measurement": "IP10 in plasma", "setting": "IP10; [3]", "result": "256 ± 30", "unit": "pg/mL"},
      {"measurement": "IP10 levels in plasma, fold higher than vehicle", "setting": "IP10; day 8 of dosing", "result": 1.7, "unit": "fold"},
      {"measurement": "mice that achieved complete cures", "setting": "[2]; [4]", "result": 70, "unit": "%"},
      {"measurement": "tolerability", "setting": "[2]; [4]", "result": "well tolerated, without obvious adverse health events"},
      {"measurement": "Tumor Growth Inhibition (Max) compared to vehicle [%]", "setting": "[2]; 10 mg/kg/dose oral BID for 21 days, C57Bl/6 mice", "result": 94, "unit": "%"},
      {"measurement": "tumor response observed", "setting": "[2]; within 7-10 days of treatment", "result": "apparent tumor stasis and shrinkage"}
    ]}
  ]
}
